Test results as given in PMC9088798, “An Approach to Derive Functional Peptide Inhibitors of Transcription Factor Activity” (JACS Au, 2022).

Columns and labels:
[1] = CD spectroscopy of single components (helicity); format: physicochemical; details: 20 °C, 10 μM, 150 mM potassium phosphate, 150 mM KF, 5 mM TCEP, pH 7.4
Procedure: Figure 5 TBS winner peptide HingeW binds cJun preferentially over A-FosW. CD spectra (20 °C) show the binding of cJun to either (A) HingeW or (B) A-FosW. […] However, the effect is larger for HingeW, indicating a greater increase in peptide helicity. Similarly, the thermal denaturation of cJun bound to either (C) HingeW or (D) A-FosW is right-shifted from the average of the component peptide denaturation profiles. […] CD dimer exchange spectra show (E) an increase in helicity when HingeW is mixed with the A-FosW/cJun heterodimer as the HingeW exchanges with the A-FosW due to the binding preference of cJun for HingeW and (F) no shift from the average is observed when A-FosW is mixed with the HingeW/cJun heterodimer, indicating no change in dimer populations. Arrows are shown to highlight the shift from the average at 190 and 222 nm. In all experiments, the total sample peptide concentration was fixed to 10 μM, using equimolar concentrations of each component peptide to remove concentration-dependent effects. […]
(§1) µM) alongside ampicillin, kanamycin and chloramphenicol to maintain the required plasmids, and IPTG (1 mM) to induce protein expression. The library transformants were […]
increased to the optimum 4 µM in subsequent passages. […] This allows the occurrence of library members to be monitored as winner sequences are selected for. […]

[2] = system: cJun bZIP / TRE sites in TRE-mDHFR gene; assay: Transcription block survival (TBS) colony counting in E. coli; format: cell-based, human cJun, expressed in E. coli
Procedure: Figure 3 Transcription block survival (TBS) assay to derive functionally active cJun inhibitors. (A) Schematic illustrating the design and operation of TBS. (B) Controlled numbers of E. coli expressing the indicated proteins were plated on selective media and growth rates were calculated by counting colony-forming units. […] (2) A small effect on colony numbers is observed when cJun bZIP is additionally expressed. (3) TRE-mDHFR can replace the inhibited ecDHFR with colony count lower than for WT as expected. […] Although (6) cFos LZ and (7) FosW are known cJun-binders, they are unable to effectively dissociate the cJun bZIP from TRE DNA. However, (8) A-FosW and the TBS-derived hit (9) HingeW remove TRE-mDHFR transcriptional blocks to restore cell survival. Bar charts represent averages of three experimental repeats. Errors are shown as one standard deviation. Selected P values from a t-test are indicated (*P ≤ 0.05; **P ≤ 0.01; ****P ≤ 0.0001) with values for all possible comparisons within the bar chart reported in Figure S7. Serial dilutions were used to quantify colony numbers where required. Also shown are representative plate images and schematics to illustrate the effect upon TRE-mDHFR transcription. […]
Library Construction and TBS Assay: Library inserts were produced using PCR fill-in reactions from synthesised primers (Sigma) with degenerate codons at the desired positions to produce the correct residue options. The library was subcloned using SacI and AscI sites into the pET24a plasmid containing A-FosW. The primers used were cJun- […]
-3’ and cJun-Hinge-Lib_R: 5’-
-3’. The library DNA was transformed into NEB 10-beta electrocompetent E. coli cells. The following equation was utilised to determine library […]
coverage by the number of single colonies: where E is the percentage […] of the library missing, m is the number of colonies collected and n is the library size. This […]
covered. Library DNA quality was assessed by sequencing both the DNA pool and a number of single colonies to show degenerate codons in the correct positions in the pool and to show a diversity of library members from single colonies. The pool of library DNA was transformed into BL21 Gold cells already containing pES300d-TRE-mDHFR and […]
as §1
however a lower stringency is used initially before selection is increased in later steps.
Colonies from this first round of selection were pooled and serially grown in liquid culture at starting OD600 of 0.05 and grown at 37°C with shaking at 200 rpm until the OD600 […]
increased to the optimum 4 µM in subsequent passages. Bacteria containing the most effective functional antagonists were expected to produce higher levels of TRE-mDHFR which provides a growth advantage, and these will dominate the culture. At each passage step, a sample of the culture was plated on LB agar (supplemented with antibiotics to maintain plasmids) to select and sequence individual colonies, and a DNA pool was also sequenced. This allows the occurrence of library members to be monitored as winner sequences are selected for. Assay Validation experiments utilised a modified assay methodology whereby overnight cultures from glycerol stocks of the Control Strains (Figure S6) were diluted to OD600=0.5 and 50 µL was plated on a selective M9 minimal […]

Row | Substance | Fraction helicity of single component [1] [%] | colony numbers restored relative to TRE-mDHFR only ([2]; TRE-mDHFR + cJun bZIP + peptide, M9 + 4 μM TMP + 1 mM IPTG, average of three experimental repeats) [%] | reduction in colony counts on expression of cJun bZIP with TRE-mDHFR ([2]; M9 minimal media + 4 μM TMP + 1 mM IPTG, TRE-mDHFR + cJun bZIP, P ≤ 0.0001, average of three experimental repeats) [fold] | reduction in colony counts on expression of cJun bZIP without TRE sites (WT-mDHFR) ([2]; M9 minimal media + 4 μM TMP + 1 mM IPTG, WT-mDHFR + cJun bZIP vs WT-mDHFR, P ≤ 0.05, three experimental repeats) [fold]
1 | LEQRAEELARENEELEKEAEELEQELDELQAEIEQLEERNYALRKEIEDLQKQLEKL [A-FosW, N-terminal AS and C-terminal GAP caps, 6xHis-tagged] | 40.1 | 60 |  | 
2 | cJun bZIP: human cJun bZIP domain, Arg252 to Leu308 (target protein) | 14.0 |  | 21 | 1.3
